Experimental findings from patent US20160046616A1, “NRF2 SMALL MOLECULE INHIBITORS FOR CANCER THERAPY” (THE JOHNS HOPKINS UNIVERSITY, priority 2013, published 2016) are described below.

Structures are written as SMILES. Entries after “also recorded” stand apart in the source; their conditions may differ.

The subject of one assay is A549 xenograft tumors. Nature of the assay: A549 lung cancer xenograft assay (flank). As to conditions: for A549 tumor weight at end of treatment, combination with carboplatin / A549 tumor weight at end of treatment, single agent: compared to vehicle group; for Growth of A549 xenograft tumors, combination with carboplatin / Growth of A549 xenograft tumors, single agent: nude mice, flank; for Growth of A549 xenograft tumors, single agent / Efficacy of compound alone relative to carboplatin, A549 tumors: single agent. The assay is classed as in vivo, athymic nude mice. How it is done: A549 cells were injected in the flanks of athymic nude mice and once tumor volume reached 50-100 mm^3, treatment was initiated. Vehicle, carboplatin (5 mg/kg daily Monday to Friday), compound 4 (30 mg/kg daily Monday to Friday) or a combination of compound 4 and carboplatin was administered for three weeks. Values represent tumor volume ±s.e.m. for all groups (A). […] Tumors were excised and weight at the end of treatment period. […] For each group, pretreatment available lung volume was defined as 100% and compared with post-treatment lung volumes. Mice in the vehicle treated group died at 3 weeks;
(§1) A549 cells were injected in the flanks of athymic nude mice and once tumor volume reached 50-100 mm^3, treatment was initiated. Vehicle, carboplatin (20 mg/kg; 2 days/week), compound#1 (20 mg/kg 4 days/week) or a combination of compound 1 and carboplatin was administered for four weeks. Values represent tumor volume ±s.e.m. for all groups. […] Tumors were excised and weight at the end of treatment period. […] H460 cells were injected in the flanks of athymic nude mice and once tumor volume reached 50-100 mm^3, treatment was initiated. Vehicle, carboplatin (10 mg/kg; 5 days/week), compound 1 (30 mg/kg 5 days/week) or a combination of compound 1 and carboplatin was administered for three weeks. Values represent tumor volume ±s.e.m.;
A549 cells were injected in the flanks of athymic nude mice and once tumor volume reached 50-100 mm^3, treatment was initiated. Vehicle, carboplatin (10 mg/kg; 5 days/week), compound 3 (60 mg/kg 4 days/week) or a combination of compound 3 and carboplatin was administered for 15 days. Tumor growth was monitored till 28 days. Values represent tumor volume ±s.e.m. for all groups. […] Values represent tumor volume ±s.e.m.;
For the A549 lung cancer xenograft assay, five million cells in 100 μL of PBS were implanted in the flank of nude mice. Two to three weeks post cell implantation, when the tumors were about 50 to 100 mm^3 in dimension, the mice were randomly divided into four groups: vehicle, chemotherapeutic drug, Nrf2 inhibitor, and chemotherapeutic drug with an Nrf2 inhibitor. The mice were treated with the drugs for 2 to 4 weeks. Tumor volume was recorded biweekly.

In assay [1] the test system is pancreatic cancer cells (MiaPaCa). Nature of the assay: Clonogenic assay in MiaPaCa pancreatic cancer cells. As to conditions: for Growth of MiaPaCa cells, combination with gemcitabine: gemcitabine (10 nM in figure legends). The assay is classed as cell-based. As for the experimental part: (A-B) Panc1 and MiaPaCa cells were treated gemcitabine (10 nM) singly or in combination with compound 1 for 72 h. At the end of treatment, regular growth media was added and cells were further incubated for 8-10 days and stained with crystal violet;
For the clonogenic assays, 1,000 cells/well were plated in a 6-well plate. The next day, the cells were treated with vehicle (DMSO), Nrf2 inhibitor, a chemotherapeutic drug, or a combination of Nrf2 and chemotherapeutic drugs for 48 hrs. The drug containing media was then replaced with regular growth media and the cells were incubated for an additional 10 days. At the end of incubation period, the colonies were stained with Crystal Violet and imaged.

The subject of a further assay is H460 xenograft tumors. Nature of the assay: H460 lung cancer xenograft assay (flank). It counts as in vivo, athymic nude mice. As to conditions: for Growth of H460 xenograft tumors, combination with carboplatin / Growth of H460 xenograft tumors, single agent: nude mice. How it is done:
For each group, pretreatment available lung volume was defined as 100% and compared with post-treatment lung volumes.
as §1
For the H460 lung cancer xenograft assay, two million cells in 100 μL of PBS were implanted in the flank of nude mice. One week post cell implantation, when the tumors were about 50 to 100 mm^3 in dimension, the mice were randomly divided into four groups: vehicle, chemotherapeutic drug, Nrf2 inhibitor and chemotherapeutic drug with an Nrf2 inhibitor. The mice were treated with the drugs for 2 to 4 weeks. Tumor volume was recorded biweekly.

In assay [2] the test system is A549 NRF2-ARE-Fluc stable cell line. Nature of the assay: A549 Nrf2 assay: NRF2-ARE firefly luciferase reporter gene assay. It counts as cell-based. As to conditions: Homo sapiens, read-out: Potency of inhibition, A549. The essentials:
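A549 cells (Keap1 loss-of-function, constitutive NRF2) stably carrying ARE-driven firefly luciferase; compound treatment 18–24 h at 37 °C, 0.46% DMSO final.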

The subject of assay [3] is H1437 NRF2-ARE-Fluc stable cell line. Nature of the assay: H1437 Nrf2 assay: NRF2-ARE firefly luciferase reporter gene assay. The assay is classed as cell-based. As to conditions: Homo sapiens, NCI-H1437, H1437 NRF2-ARE-Fluc stable cell line; read-out: Potency of inhibition, H1437. (Reporter assays use an easily measured gene product as a stand-in for the process of interest.)

Consider `O=C(Nc1ncc(Cc2ccc(C(F)(F)F)cc2)s1)c1ccc(-c2cccc([N+](=O)[O-])c2)o1` [Compound 1], for which, in the assay with A549 xenograft tumors, the “A549 tumor weight at end of treatment, combination with carboplatin” value was “significantly reduced tumor weight”; the “A549 tumor weight at end of treatment, single agent” value is “significantly reduced tumor weight”; the “Growth of A549 xenograft tumors, combination with carboplatin” value is “showed inhibition of A549 xenograft tumors; also recorded: sensitized A549 lung tumors to carboplatin therapy”; the “Growth of A549 xenograft tumors, single agent” value is on record as “showed inhibition of A549 xenograft tumors; also recorded: shows anti-tumor activity as a single agent”. Moreover, the “Efficacy of compound alone relative to carboplatin, A549 tumors” value in the assay on A549 xenograft tumors is on record as “comparable to carboplatin”. In assay [1], the “Growth of MiaPaCa cells, single agent” value was “suppressed the growth of two different pancreatic cell lines” and the “Growth of MiaPaCa cells, combination with gemcitabine” value (“Growth of MiaPaCa cells, combination” for short) is recorded as “enhance the cytotoxicity of gemcitabine; also recorded: potentiates the cytotoxicity of standard care chemotherapy drugs (gemcitabine)”. The “Growth of H460 xenograft tumors, combination with carboplatin” value in the assay with H460 xenograft tumors is “shows anti-tumor efficacy in combination with carboplatin”. Also, the IC50 in assay [2] lay in the range of 5 to 25 µM. In assay [3], the IC50 is under 5 µM.

Take `Cc1ccccc1C(=O)N1CCc2cc(-c3nc(NC(=O)Cc4ccc5c(c4)OCO5)sc3C)ccc21` [compound 4]: in the assay with A549 xenograft tumors, the “A549 tumor weight at end of treatment, combination with carboplatin” value was “significantly reduced tumor weight”; the “A549 tumor weight at end of treatment, single agent” value is on record as “significantly reduced tumor weight”; the “Growth of A549 xenograft tumors, combination with carboplatin” value was “tumor size and tumor weight was reduced; also recorded: sensitized A549 lung tumors to carboplatin therapy”; the “Growth of A549 xenograft tumors, single agent” value is “tumor size and tumor weight was reduced; also recorded: shows anti-tumor activity as a single agent”. Besides, the “Efficacy of compound alone relative to carboplatin, A549 tumors” value in the assay with A549 xenograft tumors was “comparable to carboplatin”. Besides, in assay [1], the “Growth of MiaPaCa cells, single agent” value is given as “suppressed the growth of two different pancreatic cell lines; also recorded: significant growth inhibitory activity as single agent” and the “Growth of MiaPaCa cells, combination” value is on record as “enhance the cytotoxicity of gemcitabine; also recorded: potentiates the cytotoxicity of standard care chemotherapy drugs (gemcitabine)”. In addition, the “Growth of H460 xenograft tumors, combination with carboplatin” value in the assay on H460 xenograft tumors is given as “sensitized H460 lung tumors to carboplatin drug therapy”. Further, in the assay on H460 xenograft tumors (listed as ML385), the “Growth of H460 xenograft tumors, combination with carboplatin” value was “significant reduction in tumor volume and weight”. In addition, in the assay with H460 xenograft tumors (single agent), the “Growth of H460 xenograft tumors, single agent” value was “significant reduction in tumor volume and weight”; the “Efficacy of compound alone relative to carboplatin, H460 tumors” value is recorded as “comparable to carboplatin”. For the same compound, the IC50 in assay [2] was under 5 µM. In assay [3], the IC50 was under 5 µM.

On to `CC1(C)CC2CC(C)(CN2S(=O)(=O)c2ccc(C(=O)Nc3ccc(Cl)c(S(=O)(=O)N4CCOCC4)c3)cc2)C1` (stereo not drawn) [compound 3], for which the “A549 tumor growth at Day 43, 4 weeks from the end of treatment, combination with carboplatin” value with A549 xenograft tumors (compound 60 mg/kg 4 days/week + carboplatin 10 mg/kg 5 days/week for 15 days) was “significant growth retardation as compared to group treated with single agent”. Besides, in the assay on A549 xenograft tumors, the “Growth of A549 xenograft tumors, combination with carboplatin” value is “inhibited the growth; also recorded: sensitized A549 lung tumors to carboplatin therapy”; the “Growth of A549 xenograft tumors, single agent” value was “inhibited the growth; also recorded: significantly attenuated tumor growth till 28 days”; the “Efficacy of compound alone relative to carboplatin, A549 tumors” value is reported as “comparable to carboplatin”. Also, in assay [1], the “Growth of MiaPaCa cells, single agent” value is “suppressed the growth of two different pancreatic cell lines; also recorded: significant growth inhibitory effect as a single agent” and the “Growth of MiaPaCa cells, combination” value is “enhance the cytotoxicity of gemcitabine”. Moreover, in the assay with H460 xenograft tumors, the “Growth of H460 xenograft tumors, combination with carboplatin” value is on record as “inhibited the growth”. Further, the “Growth of H460 xenograft tumors, single agent” value with H460 xenograft tumors (single agent) is reported as “inhibited the growth”. The IC50 in assay [2] is under 5 µM. In addition, the IC50 in assay [3] was under 5 µM.
